Reference: patent US12286429B2, “5-oxo-1,2,3,5,8,8a-hexahydroindolizine-3-carboxamide derivatives useful as a factor XIa inhibitors” (Janssen Pharmaceutica NV, priority 2021, dated 2025)

Experiments:
Factor XIa = Factor XIa (Homo sapiens, UniProt P03951); test: Factor XIa inhibition assay utilizing a fluorophore-quencher pair peptide substrate (FLINT); type: biochemical; details: 11-point, 3-fold serial dilution, top 100 nM; 30 min preincubation; 15 μM 5Fam-KLTRAETV-K5Tamra substrate; kinetic reads over 30 min; read-out: FXIa Inhibition IC50
Text: Biological Example 1: Factor XIa Inhibition Assay Utilizing a Fluorophore-Quencher Pair Peptide Substrate
A fluorescence intensity (FLINT) based assay was used to monitor inhibition of Factor XIa. The peptide substrate, 5Fam-KLTRAETV-K5Tamra (purchased from New England Peptide) was chosen based on the FXI sequence. Conversion of zymogen FXI to its activated form, FXIa, occurs by proteolytic cleavage by […] at two sites, Arg146 and Arg180. The custom peptide used in this assay was based on the Arg146 cleavage site of FXI. The peptide substrate was designed with a fluorophore-quencher pair, where the fluorescence is quenched until FXIa cleaves the 8-mer peptide after the Arg residue.
The Factor XIa FLINT assay was used with the following 5Fam-KLTRAETV-K5Tamra assay buffer: 50 mM Tris, pH 7.5, 100 mM NaCl, 5 mM CaCl2, 0.1 mg/mL BSA, 0.03% CHAPS. Assay buffer was prepared by mixing all ingredients fresh. 5Fam-KLTRAETV-K5Tamra peptide substrate was first prepared at 10 mM in 100% DMSO, then diluted to 3 mM in 100% DMSO. Assay buffer was then added directly to the 3 mM stock of substrate to prepare the 30 μM 2× working concentration (15 μM final concentration). The 2× Factor XIa stock solution was prepared by diluting 6.562 μM stock in 1× assay buffer for a […].
Test compound(s) were run in an 11-point, 3-fold serial dilution with a final top compound concentration of 100 nM. Final DMSO in assay was 2%. FXIa was preincubated with compound for 30-minutes and then substrate was added to initiate the reaction. The assay was run with kinetic (KIN) reads at 5 min intervals over 30 minutes. […] More specifically, the assay was run as follows: • 100 nL of 0.01 mM test compound was dispensed into black 384-well non-binding Greiner BioOne 784900 plate for 0.1 μM final concentration, • 5 μL of 1× assay buffer was dispensed to column 24 (low control) and 5 μL 2× Factor XIa solution was dispensed to columns 1-23 (column 23 high control); • the plate was centrifuged with a “cover” plate at 500 rpm for 1 min • the plate was pre-incubated for 30 minutes at room temperature with plate covered; • 5 μL of 2×5Fam-KLTRAETV-K5Tamra peptide substrate was dispensed into the entire plate, columns 1-24; • the plate was centrifuged with a “cover” plate at 500 rpm for 1 min; • the plate was read monitoring fluorescence intensity on the BMG PHERAStar at room temperature, using fluorescence module 485 nm/520 nm.
(§1) Percent inhibition (IC50) curves were generated per compound tested, and data was analyzed using a 4-parameter logistic fit using GeneData Screener. The relative fluorescence unit (RFU) values were normalized to percent inhibition using the following equation: % inhibition=((HC−LC)−(compound−LC)/(HC−LC))*100
where LC—low control=mean signal of no Factor XIa or 100% inhibition of Factor XIa; HC—high control=mean signal of Factor XIa+5Fam-KLTRAETV-K5Tamra peptide substrate with DMSO only.
(§2) An 11-point dose response curve for the test compound(s) was generated using GENDATA to determine IC50 value based on the following equation: Y=Bottom+(Top−Bottom)/(1+10^((log IC50−X)*HillSlope))
(§3) where Y is the % inhibition in the presence of X inhibitor concentration, Top=high control=mean signal of Factor XIa+5Fam-KLTRAETV-K5Tamra peptide substrate with DMSO only; Bottom=low control—mean signal of no Factor XIa or 100% inhibition of Factor XIa; HillSlope—Hill coefficient; and IC50=concentration of compound with 50% inhibition in relation to top/high control.

human plasma kallikrein = human plasma kallikrein (Homo sapiens, UniProt P03952); test: Kallikrein inhibition assay utilizing a quenched AMC peptide substrate (FLINT); type: biochemical; details: 11-point, 3-fold serial dilution, top 1 μM; 30 min preincubation; 2 nM kallikrein; 50 μM Z-Gly-Pro-Arg-AMC; kinetic reads over 30 min
Description: Biological Example 2: Kallikrein Inhibition Assay Utilizing a Quenched AMC Peptide Substrate
A fluorescence intensity (FLINT) based assay was used to monitor inhibition of human plasma kallikrein. The peptide substrate, Z-Gly-Pro-Arg-AMC (Purchased from Bachem; Catalog #I-1150) was chosen based on its relatively low KM for kallikrein which enables running the assay at lower substrate concentrations to control background fluorescence. The kinetic parameters for this substrate were determined by fitting titration data to the Michaelis-Menten equation yielding a KM=40 μM, kcat=0.76 s^−1, and kcat/KM=18932 M^−1s^−1.
The Kallikrein FLINT assay was used with the following Z-Gly-Pro-Arg-AMC assay buffer: 50 mM Tris, pH 7.5, 100 mM NaCl, 5 mM CaCl2, 0.1 mg/mL BSA, 0.03% CHAPS. Assay buffer was prepared by mixing all ingredients fresh. 2× Z-Gly-Pro-Arg-AMC peptide substrate was prepared by diluting 10 mM stock into 1× assay buffer for a 100 μM working concentration (50 μM final concentration). The 2× kallikrein stock solution was prepared by diluting 14.76 μM stock in 1× assay buffer for a 4 nM working stock solution (2 nM final concentration).
Test compound(s) were run in an 11-point, 3-fold serial dilution with a final top compound concentration of 1 μM. Final DMSO in assay was 2%. Plasma kallikrein was pre-incubated for 30-minute with compound and then 50 μM substrate was added to initiate the reaction. The assay was run with kinetic (KIN) reads at 5 min intervals over 30 minutes. The time course was linear using 2 nM kallikrein greater than 30 minutes. More specifically, the assay was run as follows: • 100 nL of 0.1 mM test compound was dispensed into black 384-well non-binding Greiner BioOne 784900 plate for 1 μM final concentration; • 5 μL of 1× assay buffer was dispensed to columns 24 (low control) and 5 μL 2× human kallikrein enzyme solution was dispensed to columns 1-23 (column 23 high control); • the plate was centrifuged with a “cover” plate at 500 rpm for 1 min • the plate was pre-incubated for 30 minutes at room temperature with plate covered; • 5 μL of 2× Z-Gly-Pro-Arg-AMC peptide substrate was dispensed into the entire plate, columns 1-24; • the plate was centrifuged with a “cover” plate at 500 rpm for 1 min; • the plate was read monitoring fluorescence intensity on the BMG PHERAStar at room temperature, using fluorescence module 340 nm/440 nm.
as §1
where LC—low control=mean signal of […] 100% inhibition of human kallikrein enzyme; HC—high control=mean signal of […]+Z-Gly-Pro-Arg-AMC peptide substrate with DMSO only.
as §2
as §3, with “human kallikrein enzyme+Z-Gly-Pro-Arg-AMC” for “Factor XIa+5Fam-KLTRAETV-K5Tamra”, “human kallikrein enzyme” for “Factor XIa”, “human kallikrein enzyme;” for “Factor XIa;”

Sequence of Factor XIa (P03951 388-625 limits assumed): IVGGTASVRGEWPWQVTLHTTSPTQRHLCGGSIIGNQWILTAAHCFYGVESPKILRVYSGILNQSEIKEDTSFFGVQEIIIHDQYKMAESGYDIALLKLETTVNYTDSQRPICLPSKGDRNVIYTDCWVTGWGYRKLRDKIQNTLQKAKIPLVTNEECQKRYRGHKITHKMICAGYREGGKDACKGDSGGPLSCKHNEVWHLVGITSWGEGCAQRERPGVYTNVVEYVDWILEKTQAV
Sequence of Factor XIa (P03951 19-387 partner limits assumed): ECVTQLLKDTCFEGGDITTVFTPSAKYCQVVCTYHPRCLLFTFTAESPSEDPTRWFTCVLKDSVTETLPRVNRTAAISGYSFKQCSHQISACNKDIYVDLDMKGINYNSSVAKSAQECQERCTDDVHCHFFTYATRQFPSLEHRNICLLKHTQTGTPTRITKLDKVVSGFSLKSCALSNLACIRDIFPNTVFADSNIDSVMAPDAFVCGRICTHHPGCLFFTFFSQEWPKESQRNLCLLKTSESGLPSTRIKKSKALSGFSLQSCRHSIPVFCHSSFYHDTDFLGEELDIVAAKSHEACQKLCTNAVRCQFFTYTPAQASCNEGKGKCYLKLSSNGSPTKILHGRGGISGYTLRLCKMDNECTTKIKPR
Sequence of human plasma kallikrein (P03952 391-638 limits assumed): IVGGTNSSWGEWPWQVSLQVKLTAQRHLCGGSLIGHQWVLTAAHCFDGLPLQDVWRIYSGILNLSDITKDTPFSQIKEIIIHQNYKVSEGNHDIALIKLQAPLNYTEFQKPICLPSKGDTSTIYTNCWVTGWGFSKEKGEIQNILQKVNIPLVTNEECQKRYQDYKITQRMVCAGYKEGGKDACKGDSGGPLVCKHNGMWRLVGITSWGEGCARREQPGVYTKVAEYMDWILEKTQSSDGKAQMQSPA
Sequence of human plasma kallikrein (P03952 20-390 partner limits assumed): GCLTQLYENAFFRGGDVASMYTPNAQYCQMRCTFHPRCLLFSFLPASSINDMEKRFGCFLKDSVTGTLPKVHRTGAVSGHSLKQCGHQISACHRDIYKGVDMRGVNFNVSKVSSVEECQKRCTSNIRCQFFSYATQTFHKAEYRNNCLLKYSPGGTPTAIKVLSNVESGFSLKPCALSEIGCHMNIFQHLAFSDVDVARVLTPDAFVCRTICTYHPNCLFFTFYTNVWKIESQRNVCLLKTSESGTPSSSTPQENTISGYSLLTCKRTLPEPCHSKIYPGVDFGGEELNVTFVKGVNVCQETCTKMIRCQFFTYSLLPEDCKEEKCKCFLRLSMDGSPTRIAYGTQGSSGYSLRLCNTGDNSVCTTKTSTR

Row | Compound | IC50 (Factor XIa) [µM] | IC50 (human plasma kallikrein) [µM]
1 | O=C(O)/C=C/c1ccc(NC(=O)[C@@H]2CCC3CC(c4c(-n5cnnn5)ccc(Cl)c4F)=CC(=O)N32)cc1 (mixture of isomers) [ID No. 32, (E)-3-(4-((3S)-7-(3-Chloro-2-fluoro-6-(1H-tetrazol-1-yl)phenyl)-5-oxo-1,2,3,5,8,8a-hexahydroindolizine-3-carboxamido)phenyl)acrylic acid] | 0.0016 | 0.0144
2 | COCCn1ncc2cc(NC(=O)[C@@H]3CCC4CC(c5c(-n6cnnn6)ccc(Cl)c5F)=CC(=O)N43)ccc21 (mixture of isomers) [ID No. 4, (3S)-7-(3-chloro-2-fluoro-6-(1H-tetrazol-1-yl)phenyl)-N-(1-(2-methoxyethyl)-1H-indazol-5-yl)-5-oxo-1,2,3,5,8,8a-hexahydroindolizine-3-carboxamide] | 0.0269 | 0.106
3 | CN(O)C(=O)c1cc2cc(NC(=O)[C@@H]3CCC4CC(c5c(-n6cnnn6)ccc(Cl)c5F)=CC(=O)N43)ccc2[nH]1 (mixture of isomers) [ID No. 31, 5-((3S)-7-(3-Chloro-2-fluoro-6-(1H-tetrazol-1-yl)phenyl)-5-oxo-1,2,3,5,8,8a-hexahydroindolizine-3-carboxamido)-N-hydroxy-N-methyl-1H-indole-2-carboxamide] | 0.0048 | 0.0237
4 | NC(=O)c1c(F)cc(NC(=O)[C@@H]2CCC3CC(c4c(-n5cnnn5)ccc(Cl)c4F)=CC(=O)N32)cc1F (mixture of isomers) [ID No. 33, (3S)—N-(4-Carbamoyl-3,5-difluorophenyl)-7-(3-chloro-2-fluoro-6-(1H-tetrazol-1-yl)phenyl)-5-oxo-1,2,3,5,8,8a-hexahydroindolizine-3-carboxamide] | 0.024 | 0.204
5 | CC1(C)C(=O)Nc2ccc(NC(=O)[C@@H]3CC[C@@H]4CC(c5c(-n6cnnn6)ccc(Cl)c5F)=CC(=O)N43)cc21 [ID No. 7, (3S,8aR)-7-(3-Chloro-2-fluoro-6-(1H-tetrazol-1-yl)phenyl)-N-(3,3-dimethyl-2-oxoindolin-5-yl)-5-oxo-1,2,3,5,8,8a-hexahydroindolizine-3-carboxamide] | 0.065 | 0.131

Further lines, results first:

Row | IC50 (Factor XIa) [µM] | IC50 (human plasma kallikrein) [µM] | Compound
6 | 0.0019 | 0.0366 | O=C(Nc1ccc(-c2nnn[nH]2)cc1)[C@@H]1CC[C@H]2CC(c3c(-n4cnnn4)ccc(Cl)c3F)=CC(=O)N21 (single isomer, unassigned) [ID No. 65, (3S,8aS*)-7-[3-Chloro-2-fluoro-6-(tetrazol-1-yl)phenyl]-5-oxo-N-[4-(1H-tetrazol-5-yl)phenyl]-2,3,8,8a-tetrahydro-1_H-indolizine-3-carboxamide]
7 | 0.003 | 0.0095 | O=C(Nc1ccc2[nH]c(=O)cc(O)c2c1)[C@@H]1CCC2CC(c3c(-n4cnnn4)ccc(Cl)c3F)=CC(=O)N21 (mixture of isomers) [ID No. 64, (3S)-7-[3-Chloro-2-fluoro-6-(tetrazol-1-yl)phenyl]-N-(4-hydroxy-2-oxo-1H-quinolin-6-yl)-5-oxo-2,3,8,8a-tetrahydro-1H-indolizine-3-carboxamide]
8 | 0.0058 | 0.282 | O=C(O)c1c(F)cc(NC(=O)[C@@H]2CCC3CC(c4c(-n5cnnn5)ccc(Cl)c4F)=CC(=O)N32)cc1F (mixture of isomers) [ID No. 37, 4-[[(3S)-7-[3-Chloro-2-fluoro-6-(tetrazol-1-yl)phenyl]-5-oxo-2,3,8,8a-tetrahydro-1H-indolizine-3-carbonyl]amino]-2,6-difluoro-benzoic acid]
9 | 0.0067 | 0.0297 | Nc1noc2cc(NC(=O)[C@@H]3CCC4CC(c5c(-n6cnnn6)ccc(Cl)c5F)=CC(=O)N43)ccc12 (single isomer, unassigned) [ID No. 60, (3S,8aR*)—N-(3-Amino-1,2-benzoxazol-6-yl)-7-[3-chloro-2-fluoro-6-(tetrazol-1-yl)phenyl]-5-oxo-2,3,8,8a-tetrahydro-1H-indolizine-3-carboxamide]
10 | 0.0078 | 0.014 | CO[C@@H]1C[C@@H](C(=O)Nc2ccc3ncccc3c2)N2C(=O)C=C(c3c(-n4cnnn4)ccc(Cl)c3F)CC12 (mixture of isomers) [ID No. 45, (1R,3S)-7-[3-Chloro-2-fluoro-6-(tetrazol-1-yl)phenyl]-1-methoxy-5-oxo-N-(6-quinolyl)-2,3,8,8a-tetrahydro-1H-indolizine-3-carboxamide]
11 | 0.0017 | 0.0471 | O=C(Nc1ccc(-c2cnn[nH]2)cc1)[C@@H]1CCC2CC(c3c(-n4cnnn4)ccc(Cl)c3F)=CC(=O)N21 (mixture of isomers) [ID No. 68, (3S)-7-[3-Chloro-2-fluoro-6-(tetrazol-1-yl)phenyl]-5-oxo-N-[4-(1H-triazol-5-yl)phenyl]-2,3,8,8a-tetrahydro-1H-indolizine-3-carboxamide]
12 | 0.0263 | 0.156 | O=C(Nc1ccc(-n2cnnn2)cc1)[C@@H]1CCC2CC(c3c(-n4cnnn4)ccc(Cl)c3F)=CC(=O)N21 (mixture of isomers) [ID No. 73, (3S)-7-[3-Chloro-2-fluoro-6-(tetrazol-1-yl)phenyl]-5-oxo-N-[4-(tetrazol-1-yl)phenyl]-2,3,8,8a-tetrahydro-1H-indolizine-3-carboxamide]
13 | > 0.05 | 0.115 | CC(O)c1nc2cc(NC(=O)[C@@H]3CCC4CC(c5c(-n6cnnn6)ccc(Cl)c5F)=CC(=O)N43)ccc2s1 (mixture of isomers) [compound 91]
